{
  "source": "patent US6159733A",
  "about": "“Method for photoinactivating malignant cells” (priority 1996, dated 2000)",
  "key": {"ABE-8.1/2 cells [1]": {"system": "ABE-8.1/2 cells", "assay": "Photoinactivation of cell line, colony forming assay", "assay_type": "cell-based, murine", "conditions": "for fluence for photoinactivation to below the detection levels: 15 nM", "protocol": "(§1) Cell lines and culture conditions. WEHI-3 (murine myelocytic leukemia), L1210 (murine lymphocytic leukemia) and P815 (murine mastocytoma) cells were grown in RPMI 1640 (GibcoBRL, Grand Island, N.Y.) supplemented with 10% FBS. BC3A (murine leukemia) cells were grown in RPMI 1640 supplemented with 10 μM β-mercaptoethanol and 10% FBS; ABE-8.1/2 (murine pre-B lymphoma) cells were grown in DMEM (GibcoBRL)--10 μM β-mercaptoethanol--10% FBS. All cell lines were obtained from the American Type Culture Collection (Rockville, Md.) and were cultured at 37° C. in a humidified 5% CO2 -incubator. Prior to incubation with Pc 4, the cell lines were centrifuged and resuspended in phosphate buffered saline (PBS)--10% FBS, pH 7.4.\n(§2) Photosensitization. Aliquots of a 1.87 mM Pc 4 (kindly provided by Dr. M. E. Kenney) stock solution in dimethyl sulfoxide were kept at -80° C. in autoclaved brown glass vials. Immediately prior to the photosensitization, Pc4 was thawed and diluted in dimethyl formamide to yield a 10 μM working solution. […] Pc 4 was used at 15 nM throughout the experiments.\n(§3) BM and cell line samples, were incubated with 15 nM Pc 4 for two hours at 37° C. at cell concentrations of 1.5×10^7 cells/mL. Aliquots of 1.5 mL were transferred to 24-well plates; separate plates were used for each sample.\n(§4) In a second set of experiments, the cells were incubated with 15 nM Pc 4 at cell concentrations of 1.5×10^6 cells/mL. Prior to photoirradiation, the samples were centrifuged and the supernatants were aspirated and set aside. The cell concentrations were adjusted to 1.5×10^7 cells/mL by adding back an appropriate volume of the Pc 4 containing aspirates.\n(§5) Photoinactivation. The light source used was a filtered xenon short arc lamp (Versa-Light, Model UV-R6G, Medic Lightech, Ltd., Haifa, Israel). It was used to deliver red light (λ 600-700 nm) to the sensitized cells. After a 20 minute warm up period of the instrument, the distance from the light source to the bottom of the 24-well plate was adjusted to obtain a fluence rate of 26.6 mW/cm^2, as measured with a radiometer (Model IL 1350, International Light, Newburyport, Mass.). Samples were placed under the light source and were stirred during the irradiations. Before and after the irradiations, samples were kept in the dark.\n(§6) Cell line samples were plated (in triplicate) in a semi-solid medium which consisted of DMEM--20% vol/vol serum (2/3 horse serum, 1/3 FBS)--3 mM glutamine--60 μM β-mercaptoethanol--0.3% wt/vol agar. The samples were incubated at 37° C. in a humidified 5% CO2 -incubator, and colonies consisting of more than 50 cells were counted after nine days.\n(§7) Statistics. All assays were performed in triplicate unless mentioned otherwise. Data are expressed as mean values±standard error of the mean (SEM). Survival data are presented as surviving fractions relative to the surviving fractions of the untreated controls. The significance of the differences between experimental values was assessed by means of the Student's t-test."}, "L1210 cells [2]": {"system": "L1210 cells", "assay": "Photoinactivation of cell line, colony forming assay", "assay_type": "cell-based, murine", "conditions": "for fluence for photoinactivation to below the detection levels: 15 nM", "protocol": "as §1, §2, §3, §4, §5, §6, §7"}, "[3]": {"system": "cell lines (ABE-8.1/2, BC3A, L1210, P815, WEHI-3)", "assay": "Survival of cell lines after incubation with Pc 4", "assay_type": "cell-based, murine", "conditions": "Mus musculus, light or radiation study, read-out: surviving fractions of the cell lines after incubation", "protocol": "as §1\nPhotosensitization. […]\nas §6\nStatistics. […] Data are expressed as mean values±standard error of the mean (SEM). […] The significance of the differences between experimental values was assessed by means of the Student's t-test."}, "ABE-8.1/2 cells [4]": {"system": "ABE-8.1/2 cells", "assay": "Uptake of Pc 4, flow cytometry", "assay_type": "cell-based, murine", "conditions": "for Pc 4 content / Pc 4 content per cell volume: 15 nM", "protocol": "as §1\n(§8) In mixing experiments, aliquots of Ly-5.2 BM and cell lines samples were mixed at different ratios. The combined cell concentration of each sample was 1.5×10^7 cells/mL. […] The cell lines were stained with anti-Ly-5.1^FITC. This treatment allowed clear resolution of the relatively small ABE-8.1/2 and BC3A cells from the bone marrow granulocytes. Immediately prior to the analyses, propidium iodide (PI, 0.5 μg/mL) was added to the samples to allow exclusion of dead cells (PI^+) from the analyses. The samples were analyzed in a FACStar^PLUS (BD) that was equipped with an argon ion laser tuned to 488 nm (200 mW) and a dye laser tuned to 610 nm (300 mW). FITC, PE, PI and Pc 4 fluorescence emissions were collected through 530/30, 575/42, 660/10, 670/10 nm band pass filters, respectively.\n(§9) Cell size. Microscopic measurements of at least 20 cells were performed using a calibrated micrometer. To determine the cell size of the BM progenitor subsets, the c-kit^+,Sca-1^- and c-kit^+,Sca-1^+ fractions were sorted. The sorted cells were centrifuged and the pellets were resuspended in a 20 μl of HBBS. Samples were deposited onto microscope slides and covered with a cover slip. Cell diameters of 7.7±0.2 (c-kit^+,Sca-1^+), 8.4±0.3 (c-kit^+,Sca-1^-), 10.9±0.2 (BC3A), 11.1±0.2 (ABE-8.1/2), 13.0±0.3 (L1210), 14.2±0.3 (P815), 15.0±0.4 μm (WEHI-3) were obtained."}, "BC3A cells": {"system": "BC3A cells", "assay": "Uptake of Pc 4, flow cytometry", "assay_type": "cell-based, murine", "protocol": "as §1, §8, §9"}, "L1210 cells [5]": {"system": "L1210 cells", "assay": "Uptake of Pc 4, flow cytometry", "assay_type": "cell-based, murine", "conditions": "for Pc 4 content / Pc 4 content per cell volume: 15 nM", "protocol": "as §1, §8, §9"}, "P815 cells": {"system": "P815 cells", "assay": "Uptake of Pc 4, flow cytometry", "assay_type": "cell-based, murine", "conditions": "for Pc 4 content / Pc 4 content per cell volume: 15 nM", "protocol": "as §1, §8, §9"}, "WEHI-3 cells": {"system": "WEHI-3 cells", "assay": "Uptake of Pc 4, flow cytometry", "assay_type": "cell-based, murine", "conditions": "for Pc 4 content / Pc 4 content per cell volume: 15 nM", "protocol": "as §1, §8, §9"}, "CFU-GM": {"system": "CFU-GM", "conditions": "15 nM Pc 4, 5×10^6 cells/mL, 8 J/cm^2; cited from earlier work"}, "HL-60": {"system": "HL-60", "conditions": "15 nM Pc 4, 5×10^6 cells/mL, 8 J/cm^2; cited from earlier work"}, "[6]": {"conditions": "1.5×10^6 cells/ml during incubation"}, "[7]": {"conditions": "1.5×10^7 cells/ml during incubation"}, "[8]": {"conditions": "from 8.0×10^5 to 1.5×10^7 cells/mL"}, "[9]": {"conditions": "15 nM, 1.5×10^6 cells/ml during incubation"}, "[10]": {"conditions": "15 nM, 1.5×10^7 cells/ml during incubation"}},
  "data": [
    {"smiles": "CN(C)CCC[Si](C)(C)O[Si]1(O)n2c3c4ccccc4c2N=C2N=C(N=c4c5ccccc5c(n41)=NC1=NC(=N3)c3ccccc31)c1ccccc12", "note": "(stereo not shown) [Pc 4, hydroxysiloxy-dimethylpropyl-N-dimethyl silicon phthalocyanine]", "values": [
      {"measurement": "fluence for photoinactivation to below the detection levels", "setting": "ABE-8.1/2 cells [1]; 1.5×10^6 cells/mL", "value": 3, "unit": "J/cm^2"},
      {"measurement": "fluence for photoinactivation to below the detection levels", "setting": "ABE-8.1/2 cells [1]; 1.5×10^7 cells/mL", "value": 12, "unit": "J/cm^2"},
      {"measurement": "selectivity of photoinactivation towards the cell line", "setting": "ABE-8.1/2 cells [1]; 1.5×10^6 cells/mL", "value": "approximately 5 log10"},
      {"measurement": "selective photoinactivation", "setting": "ABE-8.1/2 cells [1]; 1.5×10^7 cells/mL, 18 J/cm^2", "value": "> 6", "unit": "log10"},
      {"measurement": "fluence for photoinactivation to below the detection levels", "setting": "L1210 cells [2]; 1.5×10^6 cells/mL", "value": 6, "unit": "J/cm^2"},
      {"measurement": "fluence for photoinactivation to below the detection levels", "setting": "L1210 cells [2]; 1.5×10^7 cells/mL", "value": 18, "unit": "J/cm^2"},
      {"measurement": "selectivity of photoinactivation towards the cell line", "setting": "L1210 cells [2]; 1.5×10^6 cells/mL", "value": "< 1", "unit": "log10"},
      {"measurement": "selective photoinactivation", "setting": "L1210 cells [2]; 1.5×10^7 cells/mL, 18 J/cm^2", "value": "> 6", "unit": "log10"},
      {"measurement": "viability at 0.015 µM", "setting": "[3]", "value": "73 to 100", "unit": "%"},
      {"measurement": "Pc 4 content", "setting": "ABE-8.1/2 cells [4]; [6]", "value": "218 ± 29.0", "unit": "Mean fluorescence/cell"},
      {"measurement": "Pc 4 content per cell volume", "setting": "ABE-8.1/2 cells [4]; [6]", "value": 0.30, "unit": "Mean fluorescence/μm^3"},
      {"measurement": "Pc 4 content", "setting": "ABE-8.1/2 cells [4]; [7]", "value": "95 ± 7.6", "unit": "Mean fluorescence/cell"},
      {"measurement": "Pc 4 content per cell volume", "setting": "ABE-8.1/2 cells [4]; [7]", "value": 0.13, "unit": "Mean fluorescence/μm^3"},
      {"measurement": "reduction of Pc 4 uptake", "setting": "ABE-8.1/2 cells [4]; [8]", "value": 2.5, "unit": "fold"},
      {"measurement": "cell concentration at which uptake reached a plateau", "setting": "BC3A cells; 15 nM", "value": "8.0×10^5 cells/mL"},
      {"measurement": "Pc 4 content", "setting": "BC3A cells; [9]", "value": "137 ± 11.3", "unit": "Mean fluorescence/cell"},
      {"measurement": "Pc 4 content per cell volume", "setting": "BC3A cells; [9]", "value": 0.20, "unit": "Mean fluorescence/μm^3"},
      {"measurement": "Pc 4 content", "setting": "BC3A cells; [10]", "value": "80 ± 5.5", "unit": "Mean fluorescence/cell"},
      {"measurement": "Pc 4 content per cell volume", "setting": "BC3A cells; [10]", "value": 0.12, "unit": "Mean fluorescence/μm^3"},
      {"measurement": "reduction of Pc 4 uptake", "setting": "BC3A cells; [8]", "value": 1.6, "unit": "fold"},
      {"measurement": "Pc 4 content", "setting": "L1210 cells [5]; [6]", "value": "291 ± 14.0", "unit": "Mean fluorescence/cell"},
      {"measurement": "Pc 4 content per cell volume", "setting": "L1210 cells [5]; [6]", "value": 0.25, "unit": "Mean fluorescence/μm^3"},
      {"measurement": "Pc 4 content", "setting": "L1210 cells [5]; [7]", "value": "124 ± 4.2", "unit": "Mean fluorescence/cell"},
      {"measurement": "Pc 4 content per cell volume", "setting": "L1210 cells [5]; [7]", "value": 0.11, "unit": "Mean fluorescence/μm^3"},
      {"measurement": "reduction of Pc 4 uptake", "setting": "L1210 cells [5]; [8]", "value": 2.5, "unit": "fold"},
      {"measurement": "Pc 4 content", "setting": "P815 cells; [6]", "value": "414 ± 21.5", "unit": "Mean fluorescence/cell"},
      {"measurement": "Pc 4 content per cell volume", "setting": "P815 cells; [6]", "value": 0.28, "unit": "Mean fluorescence/μm^3"},
      {"measurement": "Pc 4 content", "setting": "P815 cells; [7]", "value": "152 ± 17.2", "unit": "Mean fluorescence/cell"},
      {"measurement": "Pc 4 content per cell volume", "setting": "P815 cells; [7]", "value": 0.10, "unit": "Mean fluorescence/μm^3"},
      {"measurement": "reduction of Pc 4 uptake", "setting": "P815 cells; [8]", "value": 2.8, "unit": "fold"},
      {"measurement": "Pc 4 content", "setting": "WEHI-3 cells; [6]", "value": "296 ± 8.5", "unit": "Mean fluorescence/cell"},
      {"measurement": "Pc 4 content per cell volume", "setting": "WEHI-3 cells; [6]", "value": 0.17, "unit": "Mean fluorescence/μm^3"},
      {"measurement": "Pc 4 content", "setting": "WEHI-3 cells; [7]", "value": "57 ± 4.7", "unit": "Mean fluorescence/cell"},
      {"measurement": "Pc 4 content per cell volume", "setting": "WEHI-3 cells; [7]", "value": 0.03, "unit": "Mean fluorescence/μm^3"},
      {"measurement": "reduction of Pc 4 uptake", "setting": "WEHI-3 cells; [8]", "value": 5.1, "unit": "fold"},
      {"measurement": "surviving fraction of human cells", "setting": "CFU-GM", "value": 1.0},
      {"measurement": "surviving fraction of human cells", "setting": "HL-60", "value": "< 10^-5"}
    ]}
  ]
}
